Assay results: patent publication USRE32935E, “Non-toxic organotin stabilizers for vinyl chloride polymers” (M&T Chemicals, Inc., priority 1985, dated 1989)
Read-outs that look alike come from different tables or passages of the source.

How the values were obtained:
[1] = extraction of tin from blow molded vinyl chloride polymer bottles; type: physicochemical; settings: 49° C
Protocol: A number of 16 ounce (475 cc) capacity cylindrical bottles were prepared by blow molding using the following formulation: […]
The three stabilizers evaluated were n-octyltin-S,S',S"-tri(isooctyl mercaptoacetate), di-n-octyltin-S,S'-bis(isooctyl mercaptoacetate) and a mixture containing equal parts by weight of these two compounds.
The bottles were filled with the desired extractant and then placed in an oven maintained at a temperature of 49° C. for the time periods specified in the following table. A portion of the contents of the bottle was then analyzed to determine the concentration of tin.

beagle dogs = assay: 13 week feeding study in beagle dogs; type: in vivo, dog
Protocol: A second feeding study was conducted for a period of 13 weeks using beagle dogs to determine the maximum concentration of the mono-n-octyltin mercaptoacetic acid esters of this invention which can be present in the food of these animals without causing any observable toxicological effect. This concentration level is referred to as the "no-effect level" by the United States Food and Drug Administration. A stabilizer of this invention mono-n-octyltin S,S',S"-tris(isooctylmercaptoacetate) was added to the food consumed by the dogs in amounts of 0, 100, 300 and 1,000 parts per million. […] This level of toxicity is considered to be unexpectedly low for an organotin compound.
The criteria employed to determine the absence of toxicological effects included general appearance, health, growth and food intake; blood analyses for enzyme activity and serum protein; kidney damage by urine analysis; change in weight of internal organs and presence of the tin compound in the kidneys, bones, brain, liver and blood.

[2] = migration from milled/pressed polyvinyl chloride sheet into extractants (colorimetric tin analysis); type: physicochemical; settings: 10 days, 40° C; distilled water, 3% acetic acid, peanut oil, 10% ethanol; 1.5 parts stabilizer
Protocol: A mixture containing 100 parts of a commercially available vinyl chloride homopolymer(Solvic 223), 0.02 part of a half glycol ester -half calcium soap of montanic acid (available as Hoechst Wax OP) together with 1.5 parts of mono-n-octyltin-S,S',S"-tris(isooctylmercaptoacetate) was blended by placing the components on a 2-roll mill wherein the roll temperature was between 160° and 170° C. During the three minute milling period a continuous sheet formed around one of the rollers and was removed. The sheet measured 1.3 m.m. in thickness and about 300 cm.^2 in area. The sheet was pressed at a temperature of 170° C. to obtain a thickness of 1.2 m.m. The total pressing time, including a two minute preheating period, was five minutes. Square samples measurng 30 cm.^2 in total surface area were immersed in one of the extractants for 10 days, during which time the temperature of the extractant was maintained at 40° C. The extractants employed were distilled water, a 3% aqueous solution of acetic acid, peanut oil and a 10% by weight aqueous solution of ethanol. […] The quantity of peanut oil was 30 c.c.
The migration of stabilizer from the polyvinyl chloride sample into the extractant was determined by measuring the concentration of tin in the extractant using colormetric analysis of the tin - pyrocatechol violet complex. […]

[3] = relative acute toxicity of the isooctylmercaptoacetate derivatives; type: in vivo
Excerpt: This is contrary to the generally accepted, although inaccurate, generalization that a monoalkyltin compound is less toxic than the corresponding di- and trialkyltin compounds. […] This finding directly contradicts data concerning the relative toxicities of mono-, di- and triorganotin compounds that were published prior to March, 1973, the filing date of Applicant's earliest application disclosing the present stabilizer compositions.

albino rats = assay: acute oral median lethal dose in young male albino rats; type: in vivo, rat
Protocol: Young albino rats were used as the test animals. All animals were kept under observation for five days prior to experimental use, during which period they were checked for general physical health and suitability as test animals. The animals were housed in stock cages and were permitted a standard laboratory diet plus water ad libitum, except during the 16-hour period immediately prior to oral intubation, when food was withheld.
Selected groups of four male albino rats each were administered the undiluted test material at dose levels of 900, 1350, 2,025 and 3,038 mg. per kilogram of body weight. All doses were administered directly into the stomachs of the rats using a hypodermic syringe equipped with a ball-tipped intubating needle.
After oral administration of the test material, the rats were housed individually in suspended, wire-mesh cages and observed for the following 14 days. A necropsy was conducted on any animal which died during the study and on all animals sacrificed at the end of the 14-day observation period.
The acute oral median lethal dose (LD50) was calculated using the techniques of Weil, Thompson and Thompson and Weil as reported in the following references: […]

rats = settings: force-feeding, table of Neumann; cited from earlier work
[4] = compared with di- and trioctyltin chlorides, cited from earlier work
[5] = prior art statements; cited from earlier work
[6] = 3% Acetic Acid (aqueous), 24 hours
[7] = 3% Acetic Acid (aqueous), 48 hours
[8] = 3% Acetic Acid (aqueous), 72 hours

Row | Compound | Tin Content [1, 6] | Tin Content [1, 7] | Tin Content [1, 8] | Tin Content ([1]; 8% Ethanol (aqueous), 24 hours) | Tin Content ([1]; 50% Ethanol, 24 hours) | Tin Content ([1]; 50% Ethanol, 48 hours) | Tin Content ([1]; 50% Ethanol, 72 hours) | Tin Content ([1]; Distilled Water, 72 hours) | Tin Content ([1]; Distilled Water, 96 hours) | Tin Content ([1]; Distilled Water, 120 hours) | Tin Content ([1]; Heptane, 6 hours) | Tin Content ([1]; Heptane, 8 hours) | Tin Content ([1]; Heptane, 10 hours) | LD50 (lethal dose for 1/2 the population) (rats) | also measured
1 | CCCCCCC[CH2][Sn]([S]CC(=O)OCCCCCC(C)C)([S]CC(=O)OCCCCCC(C)C)[S]CC(=O)OCCCCCC(C)C [A, mono-n-octyltin-S,S',S"--tris(isooctyl mercaptoacetate)] | 0.02 ppm | 0.03 ppm | 0.02 ppm | 0.00 ppm | 0.01 ppm | 0.02 ppm | 0.02 ppm | 0.00 ppm | 0.00 ppm | 0.00 ppm | 0.02 ppm | 0.03 ppm | 0.03 ppm |  | no-effect level (beagle dogs; beagle dogs, 13 weeks, in food): 300 parts per million; no effect level (in words) (beagle dogs; long term feeding studies): sufficiently low; amount of stabilizer extracted [2]: ≤ 0.05 mg. per square decimeter; relative acute toxicity (in words) ([3]; isooctylmercaptoacetate derivatives, mono- vs di- and tri-n-octyltin): the least toxic; toxicity relative to corresponding di-n-octyltin compound (in words) ([3]; vs di-n-octyltin compound of Gloskey patent): less toxic than the corresponding di-n-octyltin compound; acute oral median lethal dose (LD50) (albino rats; male albino rats, oral intubation, undiluted, 14 days observation): 2.48 g. per kilogram of weight; LD50 relative to other conventional organotin stabilizers (in words) (albino rats; vs other conventional organotin compounds employed as non-toxic stabilizers): considerably higher than the values for other conventional organotin compounds
2 | CCCCCCC[CH2][Sn]([CH2]CCCCCCC)([S]CC(=O)OCCCCCC(C)C)[S]CC(=O)OCCCCCC(C)C [B, di-n-octyltin-S,S'--bis(isooctyl mercaptoacetate), reference compound] | 0.00 ppm | 0.00 ppm | 0.00 ppm | 0.00 ppm | 0.03 ppm | 0.05 ppm | 0.03 ppm | 0.00 ppm | 0.00 ppm | 0.00 ppm | 0.03 ppm | 0.02 ppm | 0.02 ppm | 1975 mg per kilogram of body weight | 
3 | CCCCCCC[CH2][Sn]([Cl])([Cl])[Cl] [monooctyltin trichloride] |  |  |  |  |  |  |  |  |  |  |  |  |  |  | acute oral toxicity (relative, in words) [4]: greater than the toxicity of either dioctyltin dichloride or trioctyltin chloride; acute oral toxicity (relative, in words) ([4]; listed as mono-n-octyltin trichloride): significantly more severe than the corresponding di- or tri-n-octyltin chlorides
4 | [Cl][Sn][Cl] [stannous chloride] |  |  |  |  |  |  |  |  |  |  |  |  |  |  | toxicity (in words) [5]: relatively little, if any, toxicity
5 | bis(tri-n-octyltin) sulfate |  |  |  |  |  |  |  |  |  |  |  |  |  | greater than 6,000 mg per kilogram of body weight | 
6 | di-n-octyltin maleate |  |  |  |  |  |  |  |  |  |  |  |  |  | 4,500 mg per kilogram of body weight | 
